Assay in all cases: In vitro cytotoxicity, CellTiter-Glo cell viability
What all share (type): cell-based
(In general: Cellular ATP, detected with luciferase, serves as a proxy for viable cell number.)

Assay [1] relates to colon (COLO 205) adenocarcinoma cells. To be noted: Homo sapiens, 72 h incubation, CPT-equivalent concentrations. The source says: (§1) HPLC characterization of CPT liberation from CPT-polyMPC conjugates confirmed the importance of tailored linkers, and was informative for in vitro cell culture evaluation of conjugate toxicity against various cell lines. […] These CPT hydrolysis half-lives are, however, slower than those reported for PEGylated-SN38 conjugates, leading to an expected longer blood circulation time in vivo. […] Controls included a DMSO solution of CPT, and polyMPC itself in sterile distilled water. […] Importantly, the cytotoxicity was through the CPT only, since polyMPC by itself was non-toxic (FIG. 8).
(§2) Sodium azide, 4-(dimethylamino)pyridine (DMAP), N,N′-diisopropylethylamine (DIPEA), triethylamine (TEA), N-(3-Dimethylaminopropyl)-N′-ethylcarbodiimide hydrochloride (EDC), 2-bromopropionyl bromide, 2-bromoisobutyryl bromide, copper(I) bromide, 2,2′-bipyridine (bpy), 6-bromohexanoic acid, 2-[2-(2-chloroethoxy)ethoxy]ethanol, ethyl 2-bromoisobutyrate, 3-(trimethylsilyl)propargyl alcohol, methacyloyl chloride, mouse serum, and human plasma were purchased from Aldrich. 20(S)-camptothecin (CPT) was purchased from Acros. Chromium trioxide was purchased from Alfa Aesar. TFA was purchased from Fisher Scientific. Boc-Gly-OH was purchased from Advanced ChemTech. MPC monomer was synthesized in house. […] Cell viability was measured using CellTiter-Glo luminescent cell viability assays (Promega).
(§3) The COLO 205 and OVCAR 3 cancer cells were cultured in RPMI-1640 medium supplemented with 10% fetal bovine serum (FBS) or 20% FBS and 0.01 mg/ml bovine insulin, while MCF 7 cells were cultured in MEM medium supplemented with 10% FBS and 0.01 mg/ml bovine insulin. […] Cell viability post-treatment was measured using CellTiter-Glo luminescent cell viability assays (Promega) as per manufacturer's instructions on a FLUOstar OPTIMA plate reader (BMG LABTECH). The percentage camptothecin mediated toxicity was calculated with respect to untreated cells, and graphed to give dose response curves. IC50 values for each treatment were then calculated using the GraphPad Prism4 statistical analysis software.

For assay [2], the system named is human breast (MCF-7) adenocarcinoma cells. To be noted: MCF7, 72 h incubation, CPT-equivalent concentrations.
Source text: as §1, §2, §3

Assay [3] relates to ovarian (OVCAR 3) adenocarcinoma cells. To be noted: Homo sapiens, 72 h incubation, CPT-equivalent concentrations.
Source text: as §1, §2, §3

One may read the IC50 as the concentration that gives 50% inhibition. As for `CC[C@@]1(O)C(=O)OCc2c1cc1n(c2=O)Cc2cc3ccccc3nc2-1` [CPT, 20(S)-Camptothecin], the half-inhibitory concentration (IC50) in assay [1] is 320 nM; in assay [2], 290 nM; in assay [3], 130 nM.

These data come from US10632206B2, “Zwitterionic polymers with therapeutic moieties” (priority 2008, dated 2020).
